The values that follow come from PubChem BioAssay (NCI).

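Five concentrations, 48 hours, 96-well plates. GI50 marks 50% less growth. Definition used: TGI = concentration required for complete inhibition of growth.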

For one assay, the system named is IGROV1 ovarian. The assay is described as follows: NCI tumour cell line growth inhibition, 48 h.
As for `COc1ccc2c(c1)/C(=C\c1c(Cl)nc3sc(C)cn13)C(=O)N2`, the TGI amounted to 16.7 µM.

With `CO[C@H]1/C=C(/C)CCC[C@H](C)[C@H](O)[C@@H](C)C(=O)C(C)(C)[C@@H](O)CC(=O)O[C@@H]1/C(C)=C/c1csc(C)n1`, the GI50 is 0.0241 µM and the TGI was above 100 µM.

Compound `OCCc1ccsc1-c1sc(-c2cc(CCO)c(-c3sccc3CCO)s2)cc1CCO` displayed a TGI of 29.5 µM.

For the compound `COc1cccc2c(=O)oc(-c3ccc(C(C)(C)C)cc3)nc12`, the TGI was above 100 µM.

In turn, `COc1ccc2c(c1)OCC1Cc3ccccc3OC21` (configuration not stated) registered a TGI above 100 µM.

Compound `COC(=O)C1CCC(=O)N1C(c1ccc(OC)cc1)c1ccc2c(c1)OCO2` (configuration not stated) showed a TGI above 100 µM.

As to `CC1=NN(c2cccc(Cl)c2)C2(C1=C/C=C/c1ccccc1)C(Cl)C(=O)N2c1nc2ccccc2s1` (configuration not stated), the TGI was above 100 µM.

Regarding `C=CCSc1nnc2cc(CN3CCCC3)c(-c3ccc(Cl)cc3)nn12`, the TGI was 44.3 µM.

As to `CCOC(=O)c1cn2c(nc1=O)N[C@H]1CCCC[C@@H]12`, the TGI is above 100 µM.

Regarding `CN(C)c1ccc(C(=N/N=C2\C(=O)Nc3ccccc32)c2ccc(N(C)C)cc2)cc1`, the TGI was found to be 9.07 µM.

`Cc1ccc(C(=C2Sc3ccccc3S2)C(=C2Sc3ccccc3S2)c2ccc(C)s2)s1`: the TGI is above 100 µM.

For `CC1(C)CCCC2OC2CCC(C)(C)C1=O` (configuration not stated), the TGI was above 100 µM.

The test system of another assay is PC-3 prostate. The assay is described as follows: NCI tumour cell line growth inhibition, 48 h.
In the case of `CC(=O)Nc1nc(C#N)[nH]c1C#N`, the TGI was above 100 µM.

`O=C(O)/C=C(/C(=O)O)C12CCN3CC4=CCOC5CC(=O)NC1C5C4CC32` (configuration not stated) came in with a TGI above 100 µM.

In the case of `Cc1c(S(=O)(=O)c2ccccc2)c(N)n(CCN(C)C)c1C`, the TGI is above 100 µM.

The compound `COc1ccc2c(C)cc(=O)oc2c1OC` had a TGI above 100 µM.

`COc1cccc2c1OC1(C=C2)Oc2ccccc2C(=O)N1C` (configuration not stated) displayed a TGI above 100 µM.

On to `O=[N+]([O-])c1ccc(Oc2c(Cl)cc(S(=O)(=O)/N=C(\NO)Nc3ccc(Cl)cc3)cc2Cl)cc1`, for which the TGI worked out at 22.2 µM.

`Cc1cc(N(CCOS(C)(=O)=O)CCOS(C)(=O)=O)ccc1C=O` showed a TGI above 100 µM.

With `O=c1[nH]c(=O)n(C2OC(CO)C(O)C2O)c2nc(-c3ccc(-c4ccccc4)cc3)cnc12` (configuration not stated), the TGI was above 100 µM.

`CN1CSC(=S)N(c2c3ccccc3nc3ccc(Br)cc23)C1` gave a TGI of 26.3 µM.

On to `CCCCCCOc1ccc(C(=O)NOC)cc1`, for which the TGI was above 100 µM.

With `NS(=O)(=O)c1cc(Cl)c(NC(=S)NC(=O)Nc2ccc(Cl)c(Cl)c2)c(Cl)c1`, the TGI was above 100 µM.

As for `Cc1cn(C2CC(O)C(CO)O2)c(=O)[nH]c1=O` (configuration not stated), the TGI was above 5000 µM.

The compound `CCOC(=O)c1c(C)nc2c3ccccc3c(C#N)c(C)n12` came in with a TGI above 100 µM.

Compound `Cc1cc2c3c(nc4ccccc42)C(=O)c2ccccc2-c3n1` had a TGI of 80.9 µM.

Compound `COc1ccc2c(c1)/C(=C\c1c(Cl)nc3sc(C)cn13)C(=O)N2` returned a TGI of 12.4 µM.

Regarding `CO[C@H]1/C=C(/C)CCC[C@H](C)[C@H](O)[C@@H](C)C(=O)C(C)(C)[C@@H](O)CC(=O)O[C@@H]1/C(C)=C/c1csc(C)n1`, the GI50 was 0.0361 µM and the TGI is above 100 µM.

`OCCc1ccsc1-c1sc(-c2cc(CCO)c(-c3sccc3CCO)s2)cc1CCO` displayed a TGI of 24.1 µM.

For the compound `COc1cccc2c(=O)oc(-c3ccc(C(C)(C)C)cc3)nc12`, the TGI was above 100 µM.

In turn, `COc1ccc2c(c1)OCC1Cc3ccccc3OC21` (configuration not stated) yielded a TGI above 100 µM.

Compound `COC(=O)C1CCC(=O)N1C(c1ccc(OC)cc1)c1ccc2c(c1)OCO2` (configuration not stated) yielded a TGI above 100 µM.

`CC1=NN(c2cccc(Cl)c2)C2(C1=C/C=C/c1ccccc1)C(Cl)C(=O)N2c1nc2ccccc2s1` (configuration not stated) had a TGI above 82.9 µM.

`C=CCSc1nnc2cc(CN3CCCC3)c(-c3ccc(Cl)cc3)nn12` gave a TGI of 35.3 µM.

Compound `CCOC(=O)c1cn2c(nc1=O)N[C@H]1CCCC[C@@H]12` registered a TGI above 100 µM.

`CN(C)c1ccc(C(=N/N=C2\C(=O)Nc3ccccc32)c2ccc(N(C)C)cc2)cc1` displayed a TGI of 40 µM.

With `Cc1ccc(C(=C2Sc3ccccc3S2)C(=C2Sc3ccccc3S2)c2ccc(C)s2)s1`, the TGI is above 100 µM.

Compound `CC1(C)CCCC2OC2CCC(C)(C)C1=O` (configuration not stated) gave a TGI above 100 µM.

A further assay relates to KM12 colon. The assay is described as follows: NCI tumour cell line growth inhibition, 48 h.
`CC(=O)Nc1nc(C#N)[nH]c1C#N` yielded a TGI above 100 µM.

For `O=C(O)/C=C(/C(=O)O)C12CCN3CC4=CCOC5CC(=O)NC1C5C4CC32` (configuration not stated), the TGI was above 100 µM.

As to `Cc1c(S(=O)(=O)c2ccccc2)c(N)n(CCN(C)C)c1C`, the TGI was above 100 µM.

With `COc1ccc2c(C)cc(=O)oc2c1OC`, the TGI was above 100 µM.

Compound `COc1cccc2c1OC1(C=C2)Oc2ccccc2C(=O)N1C` (configuration not stated) registered a TGI above 100 µM.

`O=[N+]([O-])c1ccc(Oc2c(Cl)cc(S(=O)(=O)/N=C(\NO)Nc3ccc(Cl)cc3)cc2Cl)cc1` registered a TGI of 29 µM.

Consider `Cc1cc(N(CCOS(C)(=O)=O)CCOS(C)(=O)=O)ccc1C=O`, for which the TGI is 54.6 µM.

The compound `O=c1[nH]c(=O)n(C2OC(CO)C(O)C2O)c2nc(-c3ccc(-c4ccccc4)cc3)cnc12` (configuration not stated) had a TGI above 100 µM.

In turn, `CN1CSC(=S)N(c2c3ccccc3nc3ccc(Br)cc23)C1` showed a TGI of 33.6 µM.

Turning to `CCCCCCOc1ccc(C(=O)NOC)cc1`, the TGI is above 100 µM.

`NS(=O)(=O)c1cc(Cl)c(NC(=S)NC(=O)Nc2ccc(Cl)c(Cl)c2)c(Cl)c1` yielded a TGI above 100 µM.

Turning to `Cc1cn(C2CC(O)C(CO)O2)c(=O)[nH]c1=O` (configuration not stated), the TGI was above 5000 µM.

Turning to `CCOC(=O)c1c(C)nc2c3ccccc3c(C#N)c(C)n12`, the TGI was above 100 µM.

On to `Cc1cc2c3c(nc4ccccc42)C(=O)c2ccccc2-c3n1`, for which the TGI turned out to be 14.5 µM.

Compound `COc1ccc2c(c1)/C(=C\c1c(Cl)nc3sc(C)cn13)C(=O)N2` gave a TGI of 15.2 µM.

For the compound `CO[C@H]1/C=C(/C)CCC[C@H](C)[C@H](O)[C@@H](C)C(=O)C(C)(C)[C@@H](O)CC(=O)O[C@@H]1/C(C)=C/c1csc(C)n1`, the GI50 was below 0.0129 µM and the TGI is above 100 µM.

On to `OCCc1ccsc1-c1sc(-c2cc(CCO)c(-c3sccc3CCO)s2)cc1CCO`, for which the TGI came to 11.5 µM.

`COc1cccc2c(=O)oc(-c3ccc(C(C)(C)C)cc3)nc12`: the TGI was above 100 µM.

Compound `COc1ccc2c(c1)OCC1Cc3ccccc3OC21` (configuration not stated) returned a TGI above 100 µM.

As to `COC(=O)C1CCC(=O)N1C(c1ccc(OC)cc1)c1ccc2c(c1)OCO2` (configuration not stated), the TGI is above 100 µM.

The compound `CC1=NN(c2cccc(Cl)c2)C2(C1=C/C=C/c1ccccc1)C(Cl)C(=O)N2c1nc2ccccc2s1` (configuration not stated) showed a TGI above 67.5 µM.

Compound `C=CCSc1nnc2cc(CN3CCCC3)c(-c3ccc(Cl)cc3)nn12` yielded a TGI of 64.7 µM.

On to `CCOC(=O)c1cn2c(nc1=O)N[C@H]1CCCC[C@@H]12`, for which the TGI is above 100 µM.

`CN(C)c1ccc(C(=N/N=C2\C(=O)Nc3ccccc32)c2ccc(N(C)C)cc2)cc1` registered a TGI of 33.1 µM.

Consider `Cc1ccc(C(=C2Sc3ccccc3S2)C(=C2Sc3ccccc3S2)c2ccc(C)s2)s1`, for which the TGI is above 100 µM.

Compound `CC1(C)CCCC2OC2CCC(C)(C)C1=O` (configuration not stated) registered a TGI above 100 µM.
